The source of these data is ChEMBL document CHEMBL2346526, “Synthesis and antiproliferative activity of C-homo-lactam derivatives of 7-deoxycholic acid” (Bioorg Med Chem Lett, 2013).

Holding throughout (assay type): functional, cell-based
The nature of experiment [1]: Cytotoxicity against human Tu 686 cells after 72 hrs by MTT assay. Background: Tetrazolium dyes change colour on reduction, which living cells bring about.
A short description of experiment [2]: Cytotoxicity against human SPC-A cells after 72 hrs by MTT assay.
Experiment [3] can be described thus: Cytotoxicity against human MGC7901 cells after 72 hrs by MTT assay.
Experiment [4] in a line: Cytotoxicity against human SMMC-7404 cells after 72 hrs by MTT assay.
The test system of another experiment is HeLa. Description: Cytotoxicity against human HeLa cells after 72 hrs by MTT assay.
Experiment [5] can be described thus: Cytotoxicity against GNE 2 cells (unknown origin) after 72 hrs by MTT assay.
[6] abbreviates: Homo sapiens, HeLa, 72 h, read-out: IC50.

By IC50 is commonly meant the midpoint of a concentration-inhibition curve. Take `C[C@H](CCC(=O)O)[C@H]1CC[C@H]2[C@@H]3CC[C@@H]4CC(=O)CC[C@]4(C)[C@H]3CC(=O)N[C@]12C`: the half-inhibitory concentration (IC50) in experiment [1] was 16.7 µM; in experiment [2], above 200 µM; in experiment [3], above 200 µM; in experiment [4], above 200 µM; in the experiment with HeLa (hela), above 200 µM; in experiment [5] it was above 200 µM.
For the molecule `COC(=O)CC[C@@H](C)[C@H]1CC[C@H]2[C@@H]3CC[C@@H]4C[C@@H](OC(C)=O)CC[C@]4(C)[C@H]3C/C(=N\O)[C@]12C`, the IC50 in experiment [1] came out at 74.3 µM; in experiment [2] it was 13.5 µM; in experiment [3], 19.8 µM; in experiment [4], 15.6 µM; with HeLa (setting [6]) it was 14.7 µM; in experiment [5], 17.3 µM.
With `CC(=O)O[C@H]1CC[C@@]2(C)[C@H](CC[C@@H]3[C@@H]2CC(=O)N[C@]2(C)[C@@H]([C@H](C)CCC(=O)N(C)C)CC[C@@H]32)C1`, the IC50 in experiment [1] was 74.5 µM; in experiment [2] it was 130 µM; in experiment [3], 88.5 µM; in experiment [4], 168 µM; in the experiment with HeLa (hela), above 200 µM; in experiment [5], 151 µM.
On to `CC(=O)O[C@H]1CC[C@@]2(C)[C@H](CC[C@@H]3[C@@H]2CC(=O)N[C@]2(C)[C@@H]([C@H](C)CCC(=O)O)CC[C@@H]32)C1`, for which the IC50 in experiment [1] was 19.8 µM; in experiment [2] it was 185 µM; in experiment [3] it was 185 µM; in experiment [4], 99.3 µM; in the experiment on HeLa (hela), above 200 µM; in experiment [5], 134 µM.
Regarding `COC(=O)CC[C@@H](C)[C@H]1CC[C@H]2[C@@H]3CC[C@@H]4C[C@@H](O)CC[C@]4(C)[C@H]3CC(=O)N[C@]12C`, the half-inhibitory concentration (IC50) is above 200 µM in experiment [1]; above 200 µM in experiment [2]; above 200 µM in experiment [3]; above 200 µM in experiment [4]; 19 µM with HeLa (setting [6]); 168 µM in experiment [5].
Regarding `COC(=O)CC[C@@H](C)[C@H]1CC[C@H]2[C@@H]3CC[C@@H]4C[C@@H](OC(C)=O)CC[C@]4(C)[C@H]3CC(=O)N[C@]12C`, the concentration for half-maximal inhibition (IC50) in experiment [1] was 65.9 µM; in experiment [2] it was above 200 µM; in experiment [3], 80.7 µM; in experiment [4], 62.3 µM; with HeLa (setting [6]), 15.9 µM; in experiment [5], above 200 µM.
With `C[C@H](CCC(=O)O)[C@H]1CC[C@H]2[C@@H]3CC[C@@H]4C[C@@H](O)CC[C@]4(C)[C@H]3CC(=O)N[C@]12C`, the IC50 in experiment [1] is 44.3 µM; in experiment [2], above 200 µM; in experiment [3], above 200 µM; in experiment [4], above 200 µM; in the experiment on HeLa (setting [6]) it was 19.2 µM; in experiment [5], 168 µM.
